Consider one compound from patent US20060003951A1, “Anti-viral 7-deaza L-nucleosides” (Micrologix Biotech Inc., priority 2001, published 2006).

`Nc1ncnc2c1ccn2[C@@H]1C[C@@H](O)[C@H](CO)O1`: the melting point is 214.8 to 215.5 °C.
